Test results from publication PMC9866191, “Novel 9-Benzylaminoacridine Derivatives as Dual Inhibitors of Phosphodiesterase 5 and Topoisomerase II for the Treatment of Colon Cancer” (Molecules, 2023).

What was measured:
[1] = target: T1, PDE5A (Homo sapiens, UniProt O76074); experiment: Phosphodiesterase 5 HTRF cGMP assay; assay type: biochemical; conditions: for IC50: means ± S.D. (n = 4), read-out: PDE5 IC50; for inhibition at 10 µM: read-out: PDE5 % Inhibition at 10 μM
T1 construct: purchased BPS Bioscience, San Diego, CA, USA
Description: All the synthesized acridine derivatives were tested for their in vitro ability to inhibit PDE5A at a screening dose of 10 µM.
The enzyme activities of phosphodiesterase 5 (PDE5) were measured using an HTRF cGMP assay kit (Cisbio, Codolet, France). […] Afterward, the HTRF reagent (cGMP-d2 and anti-cGMP-cryptate) was added for 1 h at 25 °C, and PDE activity was assayed on an HTRF reader (Tecan Infinite F200 Pro).

[2] = test system: CCD-966SK; experiment: MTT cell proliferation assay, CCD-966SK; conditions: CCD966SK skin fibroblast, 72 h MTT
[3] = test system: NCI-H23; experiment: NCI-60 one-dose screen; assay type: cell-based; conditions: Homo sapiens; NCI-H23, Non-small cell lung panel; single dose 10^−5 M; read-out: Growth inhibition %
Description: (§1) The newly synthesized compounds were screened for their in vitro anticancer activity at the Developmental Therapeutic Program (DTP) of the National Cancer Institute (NCI). The screening involved a panel of 60 human tumor cell lines consisting of 9 tissue types to screen for potential anti-cancer agents. The primary screening of submitted compounds was performed by testing a single dose (10^−5 M) in the full NCI-60 panel. The detailed % inhibition by the tested compounds against the 60 cell lines is shown in Tables S1–S3 in the Supporting Information.

[4] = test system: NCI-H322M; experiment: NCI-60 one-dose screen; assay type: cell-based; conditions: Homo sapiens, Non-small cell lung panel, single dose 10^−5 M, read-out: Growth inhibition %
Description: as §1

[5] = test system: SK-MEL-2; experiment: NCI-60 one-dose screen; assay type: cell-based; conditions: Homo sapiens; SK-MEL-2, Melanoma panel; single dose 10^−5 M; read-out: Growth inhibition %
Description: as §1

[6] = test system: TK-10; experiment: NCI-60 one-dose screen; assay type: cell-based; conditions: Homo sapiens; TK-10, Renal Cancer panel; single dose 10^−5 M; read-out: Growth inhibition %
Description: as §1

[7] = test system: OVCAR-4; experiment: NCI-60 one-dose screen; assay type: cell-based; conditions: Homo sapiens; OVCAR-4, Ovarian Cancer panel; single dose 10^−5 M; read-out: Growth inhibition %
Description: as §1

[8] = test system: HT29; experiment: NCI-60 one-dose screen; assay type: cell-based; conditions: Homo sapiens, HT-29; HT29, Colon Cancer panel; single dose 10^−5 M; read-out: Growth inhibition %
Description: as §1

[9] = test system: T-47D; experiment: NCI-60 one-dose screen; assay type: cell-based; conditions: Homo sapiens, T47D, Breast Cancer panel, single dose 10^−5 M, read-out: Growth inhibition %
Description: as §1

[10] = test system: MALME-3M; experiment: NCI-60 one-dose screen; assay type: cell-based; conditions: Homo sapiens, Melanoma panel, single dose 10^−5 M, read-out: Growth inhibition %
Description: as §1

[11] = test system: SNB-75; experiment: NCI-60 one-dose screen; assay type: cell-based; conditions: Homo sapiens; SNB-75, CNS Cancer panel; single dose 10^−5 M; read-out: Growth inhibition %
Description: as §1

[12] = test system: MDA-MB-435; experiment: NCI-60 one-dose screen; assay type: cell-based; conditions: Homo sapiens; MDA-MB-435, Melanoma panel; single dose 10^−5 M; read-out: Growth inhibition %
Description: as §1

[13] = test system: HS 578T; experiment: NCI-60 one-dose screen; assay type: cell-based; conditions: Homo sapiens, Breast Cancer panel, single dose 10^−5 M, read-out: Growth inhibition %
Description: as §1

[14] = test system: HCT-15; experiment: NCI-60 one-dose screen; assay type: cell-based; conditions: Homo sapiens; HCT-15, Colon Cancer panel; single dose 10^−5 M; read-out: Growth inhibition %
Description: as §1

[15] = test system: OVCAR-3; experiment: NCI-60 one-dose screen; assay type: cell-based; conditions: Homo sapiens; OVCAR-3, Ovarian Cancer panel; single dose 10^−5 M; read-out: Growth inhibition %
Description: as §1

[16] = test system: MDA-MB-231/ATCC; experiment: NCI-60 one-dose screen; assay type: cell-based; conditions: Homo sapiens, Breast Cancer panel, single dose 10^−5 M, read-out: Growth inhibition %
Description: as §1

[17] = test system: EKVX; experiment: NCI-60 one-dose screen; assay type: cell-based; conditions: Homo sapiens, Non-small cell lung panel, single dose 10^−5 M, read-out: Growth inhibition %
Description: as §1

[18] = test system: OVCAR-8; experiment: NCI-60 one-dose screen; assay type: cell-based; conditions: Homo sapiens; OVCAR-8, Ovarian Cancer panel; single dose 10^−5 M; read-out: Growth inhibition %
Description: as §1

[19] = test system: M14; experiment: NCI-60 one-dose screen; assay type: cell-based; conditions: Homo sapiens; M14, Melanoma panel; single dose 10^−5 M; read-out: Growth inhibition %
Description: as §1

[20] = test system: OVCAR-5; experiment: NCI-60 one-dose screen; assay type: cell-based; conditions: Homo sapiens; OVCAR-5, Ovarian Cancer panel; single dose 10^−5 M; read-out: Growth inhibition %
Description: as §1

[21] = test system: HOP-92; experiment: NCI-60 one-dose screen; assay type: cell-based; conditions: Homo sapiens; HOP-92, Non-small cell lung panel; single dose 10^−5 M; read-out: Growth inhibition %
Description: as §1

[22] = test system: NCI-H460; experiment: NCI-60 one-dose screen; assay type: cell-based; conditions: Homo sapiens; NCI-H460, Non-small cell lung panel; single dose 10^−5 M; read-out: Growth inhibition %
Description: as §1

[23] = test system: MOLT-4; experiment: NCI-60 one-dose screen; assay type: cell-based; conditions: Homo sapiens; MOLT-4, Leukemia panel; single dose 10^−5 M; read-out: Growth inhibition %
Description: as §1

[24] = test system: HL-60(TB); experiment: NCI-60 one-dose screen; assay type: cell-based; conditions: Homo sapiens, Leukemia panel, single dose 10^−5 M, read-out: Growth inhibition %
Description: as §1

[25] = test system: CCRF-CEM; experiment: NCI-60 one-dose screen; assay type: cell-based; conditions: Homo sapiens, Leukemia panel, single dose 10^−5 M, read-out: Growth inhibition %
[26] = test system: IGROV1; experiment: NCI-60 one-dose screen; assay type: cell-based; conditions: Homo sapiens, IGROV-1; IGROV1, Ovarian Cancer panel; single dose 10^−5 M; read-out: Growth inhibition %
[27] = test system: LOX IMVI; experiment: NCI-60 one-dose screen; assay type: cell-based; conditions: Homo sapiens, Melanoma panel, single dose 10^−5 M, read-out: Growth inhibition %
[28] = test system: SF-268; experiment: NCI-60 one-dose screen; assay type: cell-based; conditions: Homo sapiens; SF-268, CNS Cancer panel; single dose 10^−5 M; read-out: Growth inhibition %
[29] = test system: panel of 60 human tumor cell lines; experiment: NCI 60-cell line one-dose screen (mean); assay type: cell-based; conditions: mean of the 60 cell lines, single dose 10^−5 M, read-out: Mean % Growth Inhibition
Method in brief: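 Read-out is % growth inhibition. Test compound at 10^−5 M, single dose, full NCI-60 human tumour panel.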

[30] = test system: HCT-116; experiment: MTT cell proliferation assay, HCT-116; conditions: for % Inhibition at 10 µM: 72 h MTT, means ± SD; for IC50: read-out: IC50 μM, 72 h MTT, means ± SD, three experiments

| SMILES | IC50 [1] [µM] | inhibition at 10 µM [1] [%] | % Inhibition at 10 µM [2] [%] | inhibition at 10 µM [3] [%] | inhibition at 10 µM [4] [%] | inhibition at 10 µM [5] [%] | inhibition at 10 µM [6] [%] | inhibition at 10 µM [7] [%] | inhibition at 10 µM [8] [%] | inhibition at 10 µM [9] [%] | inhibition at 10 µM [10] [%] | inhibition at 10 µM [11] [%] | inhibition at 10 µM [12] [%] | inhibition at 10 µM [13] [%] | inhibition at 10 µM [14] [%] | inhibition at 10 µM [15] [%] | inhibition at 10 µM [16] [%] | inhibition at 10 µM [17] [%] | inhibition at 10 µM [18] [%] | inhibition at 10 µM [19] [%] | other results |
| --- | --- | --- | --- | --- | --- | --- | --- | --- | --- | --- | --- | --- | --- | --- | --- | --- | --- | --- | --- | --- | --- |
| Fc1ccc(CNc2c3ccccc3nc3ccccc23)c(F)c1 [Compound 21, Acridin-9-yl-(2,4-difluorobenzyl)-amine] | > 10 | 31.9 ± 8.01 | 30.94 ± 0.86 | 57.2 | 50.8 | 0.35 | 39 | 108 | 78.2 | 52.6 | 30.5 | 18.9 | 33.5 | 24.6 | 71.3 | 29.8 | 55.6 | 54.5 | 59.8 | 44.7 | inhibition at 10 µM [20]: 48.3%; inhibition at 10 µM [21]: 103%; inhibition at 10 µM [22]: 80%; inhibition at 10 µM [23]: 76.2%; inhibition at 10 µM [24]: 41.7%; inhibition at 10 µM [25]: 46.1%; inhibition at 10 µM [26]: 64.3%; inhibition at 10 µM [27]: 78.5%; inhibition at 10 µM [28]: 31.4%; inhibition at 10 µM [29]: 56.4%; % Inhibition at 10 µM [30]: 67.37 ± 0.67%; IC50 [30]: 3.95 ± 0.82 µM |
| c1ccc(CNc2c3ccccc3nc3ccccc23)cc1 [Compound 1, Acridin-9-yl-benzyl-amine] | 9.33 ± 4.62 | 52.2 ± 5.87 | 47.97 ± 1.96 | 58.8 | 53.7 | 39.2 | 51.3 | 56.8 | 81 | 62.2 | 62.6 | 35.6 | 57.2 | 43.9 | 75.4 | 48.3 | 42.1 | 51.9 | 73.9 | 67.7 | inhibition at 10 µM [20]: 54.3%; inhibition at 10 µM [21]: 74.1%; inhibition at 10 µM [22]: 89.7%; inhibition at 10 µM [23]: 84.5%; inhibition at 10 µM [24]: 56.2%; inhibition at 10 µM [25]: 61%; inhibition at 10 µM [26]: 70.2%; inhibition at 10 µM [27]: 80.2%; inhibition at 10 µM [28]: 37.4%; inhibition at 10 µM [29]: 62.7%; % Inhibition at 10 µM [30]: 67.16 ± 2.40%; IC50 [30]: 2.81 ± 0.2 µM |
| Cc1cccc(CNc2c3ccccc3nc3ccccc23)c1 [Compound 3, Acridin-9-yl-(3-methylbenzyl)-amine] | 6.4 ± 1.89 | 59.3 ± 6.18 | 54.31 ± 0.98 | 70.3 | 59.7 | 62 | 61.6 | 72.1 | 94.8 | 74.7 | 85.9 | 63 | 70.9 | 69.7 | 84.1 | 69.2 | 61.3 | 55.5 | 79.7 | 77.2 | IC50 ([2]; read-out: IC50 μM): 8.51 ± 0.07 µM; inhibition at 10 µM [20]: 64.2%; inhibition at 10 µM [21]: 93%; inhibition at 10 µM [22]: 91.3%; inhibition at 10 µM [23]: 97.7%; inhibition at 10 µM [24]: 87.5%; inhibition at 10 µM [25]: 85.2%; inhibition at 10 µM [26]: 80.5%; inhibition at 10 µM [27]: 93.8%; inhibition at 10 µM [28]: 48%; inhibition at 10 µM [29]: 77.2%; % Inhibition at 10 µM [30]: 66.71 ± 2.10%; IC50 [30]: 4.6 ± 0.07 µM |
| COc1ccccc1CNc1c2ccccc2nc2ccccc12 [Compound 5, Acridin-9-yl-(2-methoxybenzyl)-amine] | > 10 | 45.1 ± 4.54 | 6.65 ± 1.18 | 69.1 | 51.4 | 26.5 | 44.5 | 57.8 | 82.3 | 53.8 | 54.1 | 36.5 | 57.4 | 38 | 74 | 45.7 | 42.4 | 34.3 | 68.1 | 59.1 | inhibition at 10 µM [20]: 50.2%; inhibition at 10 µM [21]: 81.8%; inhibition at 10 µM [22]: 89.8%; inhibition at 10 µM [23]: 79.3%; inhibition at 10 µM [24]: 55.2%; inhibition at 10 µM [25]: 62.5%; inhibition at 10 µM [26]: 73.7%; inhibition at 10 µM [27]: 81.1%; inhibition at 10 µM [28]: 34.9%; inhibition at 10 µM [29]: 60.8%; % Inhibition at 10 µM [30]: 63.71 ± 0.62%; IC50 [30]: 6.83 ± 0.31 µM |
| COc1ccc2nc3ccccc3c(NCc3ccccc3)c2c1 [Compound 25, Benzyl-(2-methoxyacridin-9-yl)-amine] | 3.61 ± 1 | 77.2 ± 3.03 | 44.14 ± 3.80 | 78.5 | 70.5 | 52.1 | 61.3 | 59.2 | 91.5 | 64.7 | 77.5 | 54.5 | 66.2 | 74.8 | 86.9 | 59 | 72.2 | 73.1 | 71.8 | 74 | inhibition at 10 µM [20]: 71%; inhibition at 10 µM [21]: 113%; inhibition at 10 µM [22]: 93.7%; inhibition at 10 µM [23]: 92%; inhibition at 10 µM [24]: 91.8%; inhibition at 10 µM [25]: 66.6%; inhibition at 10 µM [26]: 83.6%; inhibition at 10 µM [27]: 131%; inhibition at 10 µM [28]: 55.8%; inhibition at 10 µM [29]: 80%; % Inhibition at 10 µM [30]: 59.62 ± 2.66%; IC50 [30]: 7.43 ± 0.77 µM |
